Patent US20220281848A1, “PYRAZOLE-SUBSTITUTED PYRROLIDINONES AS HERBICIDES” (FMC Corporation, priority 2019, published 2022)

Tested on: plants
Assay: Test D post-emergence, other plants of Tables D2 and D4
Type: in vivo
Details: for damage to plant (100=total damage to plant; 0=no damage to plant), ABUTH / damage to plant (100=total damage to plant; 0=no damage to plant), AMARE / damage to plant (100=total damage to plant; 0=no damage to plant), BIDPI / damage to plant (100=total damage to plant; 0=no damage to plant), BRAPL / damage to plant (100=total damage to plant; 0=no damage to plant), CYPES / damage to plant (100=total damage to plant; 0=no damage to plant), DIGSA / damage to plant (100=total damage to plant; 0=no damage to plant), ECHCG / damage to plant (100=total damage to plant; 0=no damage to plant), ELEIN / damage to plant (100=total damage to plant; 0=no damage to plant), EPHHL / damage to plant (100=total damage to plant; 0=no damage to plant), GLXMA / damage to plant (100=total damage to plant; 0=no damage to plant), IPOHE / damage to plant (100=total damage to plant; 0=no damage to plant), ORYSA / damage to plant (100=total damage to plant; 0=no damage to plant), PANMI / damage to plant (100=total damage to plant; 0=no damage to plant), SETFA / damage to plant (100=total damage to plant; 0=no damage to plant), SORVU: post-emergence
How it was run: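 Seeds treated with herbicide safener; sown in soil; glasshouse, 16 h light, 65% humidity. Sprayed day 1 (pre) or ~day 12 (post). Spray in 0.2% v/v adjuvant. Scored 0–100 damage: 20 DAA pre, 15 d post.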

[1] = "Cereals" Postemergent, Rates 130, evaluated after 15 d
[2] = "Cereals" Postemergent, Rates 250, evaluated after 15 d
[3] = "Cereals" Postemergent, Rates 500, evaluated after 15 d

COc1c(F)cccc1NC(=O)C1C(=O)N(C)CC1c1cc(C(F)(F)F)n(C)n1 (racemic) [Compound 18]
ALOMY damage rating (100=total damage to plant; 0=no damage to plant) [1]: 10 | ALOMY damage rating (100=total damage to plant; 0=no damage to plant) [2]: 30 | ALOMY damage rating (100=total damage to plant; 0=no damage to plant) [3]: 40 | AVEFA damage rating (100=total damage to plant; 0=no damage to plant) [1]: 0 | AVEFA damage rating (100=total damage to plant; 0=no damage to plant) [2]: 20 | AVEFA damage rating (100=total damage to plant; 0=no damage to plant) [3]: 40 | BEAVA damage rating (100=total damage to plant; 0=no damage to plant) [1]: 0 | BEAVA damage rating (100=total damage to plant; 0=no damage to plant) [2]: 0 | BEAVA damage rating (100=total damage to plant; 0=no damage to plant) [3]: 0 | BROTE damage rating (100=total damage to plant; 0=no damage to plant) [1]: 0 | BROTE damage rating (100=total damage to plant; 0=no damage to plant) [2]: 0 | BROTE damage rating (100=total damage to plant; 0=no damage to plant) [3]: 0 | BRSNN damage rating (100=total damage to plant; 0=no damage to plant) [1]: 10 | BRSNN damage rating (100=total damage to plant; 0=no damage to plant) [2]: 10 | BRSNN damage rating (100=total damage to plant; 0=no damage to plant) [3]: 20 | CHEAL damage rating (100=total damage to plant; 0=no damage to plant) [1]: 0 | CHEAL damage rating (100=total damage to plant; 0=no damage to plant) [2]: 0 | CHEAL damage rating (100=total damage to plant; 0=no damage to plant) [3]: 20 | GALAP damage rating (100=total damage to plant; 0=no damage to plant) [1]: 0 | GALAP damage rating (100=total damage to plant; 0=no damage to plant) [2]: 0 | GALAP damage rating (100=total damage to plant; 0=no damage to plant) [3]: 40 | HORVW damage rating (100=total damage to plant; 0=no damage to plant) [1]: 0 | HORVW damage rating (100=total damage to plant; 0=no damage to plant) [2]: 30 | HORVW damage rating (100=total damage to plant; 0=no damage to plant) [3]: 50 | KCHSC damage rating (100=total damage to plant; 0=no damage to plant) [1]: 0 | KCHSC damage rating (100=total damage to plant; 0=no damage to plant) [2]: 0 | KCHSC damage rating (100=total damage to plant; 0=no damage to plant) [3]: 0 | LOLPE damage rating (100=total damage to plant; 0=no damage to plant) [1]: 0 | LOLPE damage rating (100=total damage to plant; 0=no damage to plant) [2]: 0 | LOLPE damage rating (100=total damage to plant; 0=no damage to plant) [3]: 10 | POAAN damage rating (100=total damage to plant; 0=no damage to plant) [1]: 0 | POAAN damage rating (100=total damage to plant; 0=no damage to plant) [2]: 50 | POAAN damage rating (100=total damage to plant; 0=no damage to plant) [3]: 70 | POLCO damage rating (100=total damage to plant; 0=no damage to plant) [1]: 0 | POLCO damage rating (100=total damage to plant; 0=no damage to plant) [2]: 0 | POLCO damage rating (100=total damage to plant; 0=no damage to plant) [3]: 0 | SINAR damage rating (100=total damage to plant; 0=no damage to plant) (SINAR, "Cereals" Postemergent, Rates 500, evaluated after 15 d): 40 | STEME damage rating (100=total damage to plant; 0=no damage to plant) [1]: 0 | STEME damage rating (100=total damage to plant; 0=no damage to plant) [2]: 0 | STEME damage rating (100=total damage to plant; 0=no damage to plant) [3]: 20 | VERPE damage rating (100=total damage to plant; 0=no damage to plant) [1]: 0 | VERPE damage rating (100=total damage to plant; 0=no damage to plant) [2]: 0 | VERPE damage rating (100=total damage to plant; 0=no damage to plant) [3]: 40 | damage to plant (100=total damage to plant; 0=no damage to plant), ABUTH (rate 130, evaluated after 15 d): 0 | damage to plant (100=total damage to plant; 0=no damage to plant), ABUTH (rate 250, evaluated after 15 d): 0 | damage to plant (100=total damage to plant; 0=no damage to plant), ABUTH (rate 500, evaluated after 15 d): 30 | damage to plant (100=total damage to plant; 0=no damage to plant), AMARE (rate 130, evaluated after 15 d): 0 | damage to plant (100=total damage to plant; 0=no damage to plant), AMARE (rate 250, evaluated after 15 d): 10 | damage to plant (100=total damage to plant; 0=no damage to plant), AMARE (rate 500, evaluated after 15 d): 20 | damage to plant (100=total damage to plant; 0=no damage to plant), BIDPI (rate 130, evaluated after 15 d): 0 | damage to plant (100=total damage to plant; 0=no damage to plant), BIDPI (rate 250, evaluated after 15 d): 0 | damage to plant (100=total damage to plant; 0=no damage to plant), BIDPI (rate 500, evaluated after 15 d): 20 | damage to plant (100=total damage to plant; 0=no damage to plant), BRAPL (rate 130, evaluated after 15 d): 60 | damage to plant (100=total damage to plant; 0=no damage to plant), BRAPL (rate 250, evaluated after 15 d): 70 | damage to plant (100=total damage to plant; 0=no damage to plant), BRAPL (rate 500, evaluated after 15 d): 80 | damage to plant (100=total damage to plant; 0=no damage to plant), CYPES (rate 130, evaluated after 15 d): 0 | damage to plant (100=total damage to plant; 0=no damage to plant), CYPES (rate 250, evaluated after 15 d): 0 | damage to plant (100=total damage to plant; 0=no damage to plant), CYPES (rate 500, evaluated after 15 d): 0 | damage to plant (100=total damage to plant; 0=no damage to plant), DIGSA (rate 130, evaluated after 15 d): 30 | damage to plant (100=total damage to plant; 0=no damage to plant), DIGSA (rate 250, evaluated after 15 d): 60 | damage to plant (100=total damage to plant; 0=no damage to plant), DIGSA (rate 500, evaluated after 15 d): 70 | damage to plant (100=total damage to plant; 0=no damage to plant), ECHCG (rate 130, evaluated after 15 d): 0 | damage to plant (100=total damage to plant; 0=no damage to plant), ECHCG (rate 250, evaluated after 15 d): 60 | damage to plant (100=total damage to plant; 0=no damage to plant), ECHCG (rate 500, evaluated after 15 d): 70 | damage to plant (100=total damage to plant; 0=no damage to plant), ELEIN (rate 130, evaluated after 15 d): 0 | damage to plant (100=total damage to plant; 0=no damage to plant), ELEIN (rate 250, evaluated after 15 d): 0 | damage to plant (100=total damage to plant; 0=no damage to plant), ELEIN (rate 500, evaluated after 15 d): 0 | damage to plant (100=total damage to plant; 0=no damage to plant), EPHHL (rate 130, evaluated after 15 d): 0 | damage to plant (100=total damage to plant; 0=no damage to plant), EPHHL (rate 250, evaluated after 15 d): 10 | damage to plant (100=total damage to plant; 0=no damage to plant), EPHHL (rate 500, evaluated after 15 d): 20 | damage to plant (100=total damage to plant; 0=no damage to plant), GLXMA (rate 130, evaluated after 15 d): 0 | damage to plant (100=total damage to plant; 0=no damage to plant), GLXMA (rate 250, evaluated after 15 d): 0 | damage to plant (100=total damage to plant; 0=no damage to plant), GLXMA (rate 500, evaluated after 15 d): 0 | damage to plant (100=total damage to plant; 0=no damage to plant), IPOHE (rate 130, evaluated after 15 d): 0 | damage to plant (100=total damage to plant; 0=no damage to plant), IPOHE (rate 250, evaluated after 15 d): 20 | damage to plant (100=total damage to plant; 0=no damage to plant), IPOHE (rate 500, evaluated after 15 d): 30 | damage to plant (100=total damage to plant; 0=no damage to plant), ORYSA (rate 130, evaluated after 15 d): 0 | damage to plant (100=total damage to plant; 0=no damage to plant), ORYSA (rate 250, evaluated after 15 d): 0 | damage to plant (100=total damage to plant; 0=no damage to plant), ORYSA (rate 500, evaluated after 15 d): 0 | damage to plant (100=total damage to plant; 0=no damage to plant), PANMI (rate 130, evaluated after 15 d): 0 | damage to plant (100=total damage to plant; 0=no damage to plant), PANMI (rate 250, evaluated after 15 d): 10 | damage to plant (100=total damage to plant; 0=no damage to plant), PANMI (rate 500, evaluated after 15 d): 10 | damage to plant (100=total damage to plant; 0=no damage to plant), SETFA (rate 130, evaluated after 15 d): 0 | damage to plant (100=total damage to plant; 0=no damage to plant), SETFA (rate 250, evaluated after 15 d): 30 | damage to plant (100=total damage to plant; 0=no damage to plant), SETFA (rate 500, evaluated after 15 d): 70 | damage to plant (100=total damage to plant; 0=no damage to plant), SORVU (rate 130, evaluated after 15 d): 0 | damage to plant (100=total damage to plant; 0=no damage to plant), SORVU (rate 250, evaluated after 15 d): 0 | damage to plant (100=total damage to plant; 0=no damage to plant), SORVU (rate 500, evaluated after 15 d): 0
